Source: patent US20210204580A1, “ORGANIC COMPOUNDS” (Givaudan SA, priority 2018, published 2021)

Tests used:
[1] = off-note masking in consumables containing non-animal derived protein (general statements)
[2] = Potato protein solution taste description; conditions: 3 wt % potato protein solution + 14 ppt ethyl cyclohexanoate; Sample A without it: earthy, musty, fishy, bitter
Method: An aqueous potato protein solution comprising 3 weight % potato protein (Solanic™ 200 by Avebe) was prepared (Sample A).

Q: For `CCOC(=O)C1CCCCC1` [ethyl cyclohexanoate], which “effect on off-note attributes” value ([1]; higher concentrations, 50 ppt or more) is on record?
A: provides a significant effect on several off-note attributes, but in addition confers some fruity notes

Q: And the off-note masking result ([1]; up to 20 ppt (e.g. 0.5 ppt to about 15 ppt) added to a consumable comprising about 3 wt % non-animal derived protein)?
A: good results

Q: What about the masking of off-notes ([1]; use around its odor detection threshold, about 0.5 ppt (ng/L) to about 20 ppt (ng/L)) of the same molecule?
A: provides the masking of certain off-notes

Q: What about the taste description [2] of the same molecule?
A: earthy, potato-like, but no fishy, bitter taste attributes have been noticed
